According to patent US20240041991A1, “STABLE LIQUID DISPERSINB COMPOSITIONS” (KANE BIOTECH INC., priority 2020, published 2024):
Where two headings read alike, the source gives them in different places. Marks after values point to notes of the source that are not given here.

Columns and labels:
DispersinB [1] = type: biochemical, Aggregatibacter actinomycetemcomitans; conditions: 50 mM citrate buffer pH 5.9, salt concentration as in label, control with no salts = 100%
Description: Activity of the control sample with no salts was considered 100%.

DispersinB [2] = conditions: 50 mM Citrate, 100 mM NaCl pH 5.9 control = 100%
Procedure: DispersinB enzyme solutions (100 μg/ml) were prepared in 50 mM citrate buffer, containing 200 mM K2SO4. The pH was adjusted (5.4 to 5.9). DispersinB enzymatic activity was measured using β-N-Acetylglucosaminidase assay kit from Sigma (product code CS0780) in 96-well microtiter plate following the manufacturer's instructions. The data was represented as % enzymatic activity in comparison to enzyme activity of control sample that contained 100 μg/ml DispersinB in 50 mM citrate buffer (pH 5.9) containing 100 mM NaCl Activity of the control sample was considered 100%.

DispersinB [3] = assay: Effect of buffer and pH on DispersinB enzymatic activity (β-N-Acetylglucosaminidase assay kit); type: biochemical, Aggregatibacter actinomycetemcomitans; conditions: buffer strength 100 mM, 100 mM NaCl, citrate pH 5.9 = 100%
Procedure: Lyophilized DispersinB powder was dissolved in selected buffers (citrate, phosphate) of defined pH (5.5 -7.5). The DispersinB concentration was adjusted to 100 μg/ml. Salt concentration was maintained at 100 mM sodium chloride. […] The enzymatic activity was presented as percentages in comparison to enzymatic activity of DispersinB in 100 mM Citrate buffer, 100 mM NaCl, pH 5.9, which was considered 100%.
Enzymatic activity in citrate buffer with a pH of 5.9 was considered 100%. * indicates statistically significant (p<0.05) values in paired two tailed t-test, each treatment was compared with enzymatic activity of DispersinB in corresponding buffer of pH 5.9.

DispersinB [4] = tested on: DispersinB
Procedure: DispersinB enzyme (100 μg/ml) solutions in 50 mM citrate buffer and phosphate buffer (pH 5.9), with 100 mM NaCl containing EDTA (0.5%-10%) were tested for DispersinB enzymatic activity following β-N-Acetylglucosaminidase assay.

DispersinB [5] = conditions: 50 mM citrate buffer pH 5.9, 100 mM K2SO4 sample = 100%
DispersinB [6] = type: biochemical, Aggregatibacter actinomycetemcomitans; conditions: 50 mM citrate buffer pH 5.9, 100 mM NaCl, levulinic acid % as in label, control = 100%
Procedure: DispersinB enzyme (100 μg/ml) solutions in 50 mM citrate buffer (pH 5.9), 100 mM NaCl containing Levulinic acid (0.25%-2%) were tested for DispersinB enzymatic activity following β-N-Acetylglucosaminidase assay.

## N.N.O=S(=O)(O)O [100 mM (NH4)2SO4, (NH4)2SO4]
DispersinB [1]
  % enzymatic activity of DispersinB (Mean): 91%

## [Cl-].[K+] [100 mM KCl, KCl]
DispersinB [1]
  % enzymatic activity of DispersinB (Mean): 152* %

## O=[N+]([O-])[O-].[K+] [100 mM KNO3, KNO3]
DispersinB [1]
  % enzymatic activity of DispersinB (Mean): 135* %

## [Cl-].[Li+] [100 mM LiCl, LiCl]
DispersinB [1]
  % enzymatic activity of DispersinB (Mean): 97%

## [Cl-].[Cl-].[Mg+2] [100 mM MgCl2, MgCl2]
DispersinB [1]
  % enzymatic activity of DispersinB (Mean): 81* %

## O=S(=O)([O-])[O-].[Mg+2] [100 mM MgSO4, MgSO4]
DispersinB [1]
  % enzymatic activity of DispersinB (Mean): 87%

## CC(=O)O.N [100 mM NH4 CH2COO, NH4 CH2COO]
DispersinB [1]
  % enzymatic activity of DispersinB (Mean): 66* %

## Cl.N [100 mM NH4Cl, NH4Cl]
DispersinB [1]
  % enzymatic activity of DispersinB (Mean): 129* %

## O=S(=O)([O-])[O-].[Na+].[Na+] [100 mM Na2SO4, Na2SO4]
DispersinB [1]
  % enzymatic activity of DispersinB (Mean): 174* %

## [Cl-].[Na+] [100 mM NaCl, NaCl]
DispersinB [1]
  % enzymatic activity of DispersinB (Mean): 179* %
DispersinB [2]; pH 5.9
  % Activity: 100.00^b %

## O=C(O)CC(O)(CC(=O)O)C(=O)O [Citrate]
DispersinB [3]; pH 5.5
  % Enzyme activity: 72* %
DispersinB [3]; pH 5.9
  % Enzyme activity: 100%
DispersinB [3]; pH 6
  % Enzyme activity: 76* %
DispersinB [3]; pH 6.5
  % Enzyme activity: 53* %
DispersinB [3]; pH 7
  % Enzyme activity: 35* %
DispersinB [3]; pH 7.5
  % Enzyme activity: 21* %

## O=C(O)CN(CCN(CC(=O)O)CC(=O)O)CC(=O)O [EDTA, Ethylenediaminetetraacetic acid]
DispersinB [4]; Citrate buffer pH 5.9, 100 mM NaCl, EDTA 0 mg/ml
  % Activity: 100.00%
DispersinB [4]; Citrate buffer pH 5.9, 100 mM NaCl, EDTA 0.5 mg/ml
  % Activity: 101.45%
DispersinB [4]; Citrate buffer pH 5.9, 100 mM NaCl, EDTA 1 mg/ml
  % Activity: 95.86%
DispersinB [4]; Citrate buffer pH 5.9, 100 mM NaCl, EDTA 2.5 mg/ml
  % Activity: 104.19%
DispersinB [4]; Citrate buffer pH 5.9, 100 mM NaCl, EDTA 9.4 mg/ml
  % Activity: 83.18%
DispersinB [4]; Phosphate buffer pH 5.9, 100 mM NaCl, EDTA 0 mg/ml
  % Activity: 100.00%
DispersinB [4]; Phosphate buffer pH 5.9, 100 mM NaCl, EDTA 0.5 mg/ml
  % Activity: 102.52%
DispersinB [4]; Phosphate buffer pH 5.9, 100 mM NaCl, EDTA 1 mg/ml
  % Activity: 99.78%
DispersinB [4]; Phosphate buffer pH 5.9, 100 mM NaCl, EDTA 2.5 mg/ml
  % Activity: 91.13%
DispersinB [4]; Phosphate buffer pH 5.9, 100 mM NaCl, EDTA 9.4 mg/ml
  % Activity: 66.51%
DispersinB [4]; citrate buffer
  concentrations of EDTA that tend to reduce the enzyme activity: greater than 2.5 mg/ml
DispersinB [4]; phosphate buffer
  concentrations of EDTA that tend to reduce the enzyme activity: greater than 1 mg/ml

## O=S(=O)([O-])[O-].[K+].[K+] [K2SO4, potassium sulfate]
DispersinB [1]; listed as 100 mM K2SO4
  % enzymatic activity of DispersinB (Mean): 211* %
DispersinB [1]; listed as 200 mM K2SO4
  % enzymatic activity of DispersinB (Mean): 289* %
DispersinB [5]; 100 mM K2SO4
  % Activity: 100%
DispersinB [5]; 150 mM K2SO4
  % Activity: 143* %
DispersinB [5]; 200 mM K2SO4
  % Activity: 149* %
DispersinB [5]; 250 mM K2SO4
  % Activity: 159* %
DispersinB [5]; 300 mM K2SO4
  % Activity: 141* %
DispersinB [2]; pH 4
  % Activity: 11.06^ab %
DispersinB [2]; pH 4.2
  % Activity: 22.55^ab %
DispersinB [2]; pH 4.4
  % Activity: 34.17^ab %
DispersinB [2]; pH 4.6
  % Activity: 57.21 ^ab %
DispersinB [2]; pH 4.8
  % Activity: 81.09 ^ab %
DispersinB [2]; pH 5
  % Activity: 118.00 ^ab %
DispersinB [2]; pH 5.1
  % Activity: 133.61 ^ab %
DispersinB [2]; pH 5.2
  % Activity: 149.86 ^ab %
DispersinB [2]; pH 5.3
  % Activity: 142.65 ^ab %
DispersinB [2]; pH 5.4
  % Activity: 162.25^a %
DispersinB [2]; pH 5.5
  % Activity: 172.83^a %
DispersinB [2]; pH 5.6
  % Activity: 166.67^a %
DispersinB [2]; pH 5.7
  % Activity: 154.62^a %
DispersinB [2]; pH 5.8
  % Activity: 146.99 ^ab %
DispersinB [2]; pH 5.9
  % Activity: 143.77 ^ab %
DispersinB [2]; pH 6
  % Activity: 130.81 ^ab %

## CC(=O)CCC(=O)O [Levulinic acid, 4-oxopentanoic acid]
DispersinB [6]; listed as 0.25% Levulinic acid
  % enzymatic activity of DispersinB (Mean): 103* %
DispersinB [6]; listed as 0.5% Levulinic acid
  % enzymatic activity of DispersinB (Mean): 102%
DispersinB [6]; listed as 1% Levulinic acid
  % enzymatic activity of DispersinB (Mean): 104%
DispersinB [6]; listed as 2% Levulinic acid
  % enzymatic activity of DispersinB (Mean): 104* %
DispersinB [6]; listed as 3% Levulinic acid
  % enzymatic activity of DispersinB (Mean): 109* %
DispersinB [6]; listed as 4% Levulinic acid
  % enzymatic activity of DispersinB (Mean): 109* %
DispersinB [6]; listed as 5% Levulinic acid
  % enzymatic activity of DispersinB (Mean): 114* %

## Phosphate
DispersinB [3]; pH 5.5
  % Enzyme activity: 80* %
DispersinB [3]; pH 5.9
  % Enzyme activity: 100%
DispersinB [3]; pH 6
  % Enzyme activity: 81* %
DispersinB [3]; pH 6.5
  % Enzyme activity: 50* %
DispersinB [3]; pH 7
  % Enzyme activity: 24* %
DispersinB [3]; pH 7.5
  % Enzyme activity: 12* %
